# How the values were obtained:
# HIV [1] = test: Phase II three-arm study atazanavir vs ritonavir, each with saquinavir + 2 NRTIs: antiviral activity; format: in vivo; conditions: atazanavir groups vs ritonavir
# Method: (§1) In another two-stage, randomized three-arm Phase II study, the antiviral activity and metabolic effects of atazanavir at two different doses (400 mg or 600 mg) was compared to ritonavir, each in combination with saquinavir over 48 weeks. The protease inhibitors were administered in combination with two nucleoside reverse transcriptase inhibitors selected from didanosine, stavudine, lamivudine or zidovudine. The selection of reverse transcriptase inhibitors (used in combination as didanosine+stavudine, stavudine+lamivudine, didanosine+zidovudine, or lamivudine+zidovudine) was based on the patient's phenotypic sensitivity and the physician's choice at the time of administration. The regimens were as follows: […]
# (§2) atazanavir 400 mg QD+saquinavir 1200 mg QD+2 nucleoside reverse transcriptase inhibitors atazanavir 600 mg QD+saquinavir 1200 mg QD+2 nucleoside reverse transcriptase inhibitors ritonavir 400 mg BID+saquinavir 400 mg BID+2 nucleoside reverse transcriptase inhibitors Patients were anti-retroviral-experienced with a treatment history of receiving a minimum of 24 weeks of a protease inhibitor-containing or non-nucleoside reverse transcriptase inhibitor-containing combination regimen. Stage 1 was to randomize approximately 75 subjects to assess the safety and antiviral activity of the regimens. […]
# HIV [2] = test: Phase II randomized study atazanavir vs nelfinavir: anti-HIV activity (viral load); format: in vivo; conditions: atazanavir 200, 400 or 500 mg once daily, monotherapy two weeks then with stavudine and didanosine; treatment-naive patients
# Method: In a Phase II randomized study, the safety and anti-HIV activity of three once daily doses of atazanavir (200 mg, 400 mg and 500 mg) was compared with 750 mg of the protease inhibitor, nelfinavir dosed three times daily. Twenty-one patients received nelfinavir in combination with stavudine and didanosine, while atazanavir was administered both as monotherapy (for two weeks) and then in combination with stavudine and didanosine to 78 treatment-naive (no prior anti-HIV therapy) patients with HIV viral loads >2000 copies per milliliter (c/mL).
# CYP3A = test: Inhibition of cytochrome P450 3A enzyme; format: biochemical
# Excerpt: Similarly, appropriate dosing of other HIV protease inhibitors to be used in combination with atazanavir can be calculated.
# [3] = human, in vivo
# Excerpt: In clinical studies carried out on 98 HIV-positive patients who have taken atazanavir for one year, no increases in plasma LDL-cholesterol or triglycerides were observed. Thus, atazanavir is particularly useful in the treatment of HIV-positive patients who have elevated plasma LDL-cholesterol and/or triglyceride levels. It can be used as monotherapy or as part of a “cocktail” which would include other antiretroviral drugs such as reverse transcriptase inhibitors, non-nucleoside reverse transcriptase inhibitors, and other HIV protease inhibitors.
# [4] = set-up: species or system human; conditions: in vivo
# Method: as §1, §2
# [5] = saquinavir dosed at 1200 mg TID; at steady-state; cited from earlier work
SMILES,"antiviral efficacy through week 12, compared to ritonavir (HIV [1])",reductions in viral load compared to the nelfinavir-treated patients (HIV [2]),Ki (CYP3A),increases in plasma LDL-cholesterol [3],increases in plasma triglycerides [3],LDL-cholesterol elevation over baseline [4],increase of the exposure of saquinavir [5]
COC(=O)N[C@H](C(=O)N[C@@H](Cc1ccccc1)[C@@H](O)CN(Cc1ccc(-c2ccccn2)cc1)NC(=O)[C@@H](NC(=O)OC)C(C)(C)C)C(C)(C)C [atazanavir],similar,at least comparable,2400 nM,no increases,no increases,not elevated,
Cc1c(O)cccc1C(=O)N[C@@H](CSc1ccccc1)[C@H](O)CN1C[C@H]2CCCC[C@H]2C[C@H]1C(=O)NC(C)(C)C [nelfinavir],,,,,,,392%

# Source: patent US20030045501A1, “Use of atazanavir in HIV therapy” (priority 2001, published 2003)
